Reference: patent US20230265151A1, “GIP/GLP1 CO-AGONIST COMPOUNDS” (priority 2020, published 2023)
Read-outs that look alike come from different tables or passages of the source. *1 amine or outer side, *2 acyl side, *3 side chain or, on linkers, in order; H or OH if unused. Where a SMILES comes first, the peptide text is derived from it. Side-chain parts run from the residue outwards. [ ]: non-standard residue; d: D form. The star is where a group is joined. Decanoyl(10-(4-HOOC-PhO)) = O=C(O)c1ccc(OCCCCCCCCCC(=O)*)cc1; αMePhe(2-F) = C[C@](N)(Cc1ccccc1F)C(=O)O; γGlu = O=C(O)[C@H](CCC(=O)[*:2])N[*:1]; αMeY = C[C@](N)(Cc1ccc(O)cc1)C(=O)O; 4Pal = N[C@@H](Cc1ccncc1)C(=O)O; αMeL = CC(C)C[C@](C)(N)C(=O)O; Orn = NCCC[C@H](N)C(=O)O; AEEA = NCCOCCOCC(=O)O; Aib = CC(C)(N)C(=O)O

Assays:
Type in all cases: cell-based
[1] = biological target: hGLP-1R (Homo sapiens, UniProt P43220); experiment: Functional cAMP formation (HTRF) in HEK-293 clonal cells expressing hGLP-1R, 0.1% bovine casein, without or with 1.0% human serum albumin; design: expressed in transfected cells; settings: for EC50: geometric mean
In short: (§1)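 Readings of the HTRF 665/620 nm ratio, which falls as cAMP rises, were converted to nM cAMP using a standard curve after 30 min peptide exposure at 37° C.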

[2] = biological target: T1, hGCGR (Homo sapiens, UniProt P47871); experiment: Functional cAMP formation (HTRF) in HEK-293 clonal cells expressing hGCGR, 0.1% bovine casein, without or with 1.0% human serum albumin; settings: geometric mean
T1 construct: expressed in transfected cells
In short: as §1

[3] = biological target: T2, hGIPR (Homo sapiens, UniProt P48546); experiment: Functional cAMP formation (HTRF) in HEK-293 clonal cells expressing hGIPR, 0.1% bovine casein, without or with 1.0% human serum albumin; settings: for EC50: cAMP, 0.1% bovine casein (no human serum albumin), geometric mean
T2 construct: expressed in transfected cells
T2 sequence (P48546 22-466): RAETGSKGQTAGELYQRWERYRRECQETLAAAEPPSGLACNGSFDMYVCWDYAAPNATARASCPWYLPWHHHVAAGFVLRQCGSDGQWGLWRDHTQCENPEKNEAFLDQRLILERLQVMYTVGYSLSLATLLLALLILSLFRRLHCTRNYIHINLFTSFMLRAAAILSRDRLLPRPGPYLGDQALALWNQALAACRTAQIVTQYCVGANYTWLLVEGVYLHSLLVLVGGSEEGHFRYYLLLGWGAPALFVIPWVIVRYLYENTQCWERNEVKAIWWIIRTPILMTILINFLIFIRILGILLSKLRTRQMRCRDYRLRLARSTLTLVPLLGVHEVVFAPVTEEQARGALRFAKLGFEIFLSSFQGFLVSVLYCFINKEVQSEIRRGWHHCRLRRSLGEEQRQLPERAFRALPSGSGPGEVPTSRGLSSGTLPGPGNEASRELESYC
In short: as §1

[4] = HEK293, read-out: hGLP-1R Emax, % ± SEM, 0.1% bovine casein and 1.0% human serum albumin, 37° C., percent of maximal response to GLP-1(7-36)NH2
[5] = HEK293, read-out: hGLP-1R Emax, % ± SEM, percent of maximal response to GLP-1(7-36)NH2, 37° C., 0.1% bovine casein, arithmetic mean
[6] = hGLP-1R EC50, nM (SEM, n), 0.1% bovine casein and 1.0% human serum albumin, 37° C.
[7] = hGLP-1R EC50, nM (SEM, n), cAMP, incubated at 37° C., 0.1% bovine casein (no human serum albumin)
[8] = hGCGR EC50, nM (SEM, n), 0.1% bovine casein and 1.0% human serum albumin, 37° C.
[9] = hGCGR EC50, nM (SEM, n), cAMP, incubated at 37° C., 0.1% bovine casein (no human serum albumin)
[10] = HEK293, read-out: hGIPR Emax, % ± SEM, 0.1% bovine casein and 1.0% human serum albumin, 37° C., percent of maximal response to GIP(1-42)NH2
[11] = hGIPR EC50, nM (SEM, n), incubated at 37° C.

hGLP-1R, sequence (P43220 24-463): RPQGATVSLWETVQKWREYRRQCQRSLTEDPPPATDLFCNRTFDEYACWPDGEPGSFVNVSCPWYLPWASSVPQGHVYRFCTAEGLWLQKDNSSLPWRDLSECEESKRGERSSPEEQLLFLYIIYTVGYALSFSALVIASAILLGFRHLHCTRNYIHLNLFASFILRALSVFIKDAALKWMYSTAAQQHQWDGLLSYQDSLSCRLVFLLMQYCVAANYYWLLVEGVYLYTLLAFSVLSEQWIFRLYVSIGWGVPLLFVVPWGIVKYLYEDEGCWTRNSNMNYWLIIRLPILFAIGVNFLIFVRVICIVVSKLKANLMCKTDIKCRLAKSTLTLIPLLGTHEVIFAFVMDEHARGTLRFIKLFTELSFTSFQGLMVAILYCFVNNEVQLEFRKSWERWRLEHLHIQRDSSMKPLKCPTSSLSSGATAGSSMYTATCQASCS
T1 sequence (P47871 26-477): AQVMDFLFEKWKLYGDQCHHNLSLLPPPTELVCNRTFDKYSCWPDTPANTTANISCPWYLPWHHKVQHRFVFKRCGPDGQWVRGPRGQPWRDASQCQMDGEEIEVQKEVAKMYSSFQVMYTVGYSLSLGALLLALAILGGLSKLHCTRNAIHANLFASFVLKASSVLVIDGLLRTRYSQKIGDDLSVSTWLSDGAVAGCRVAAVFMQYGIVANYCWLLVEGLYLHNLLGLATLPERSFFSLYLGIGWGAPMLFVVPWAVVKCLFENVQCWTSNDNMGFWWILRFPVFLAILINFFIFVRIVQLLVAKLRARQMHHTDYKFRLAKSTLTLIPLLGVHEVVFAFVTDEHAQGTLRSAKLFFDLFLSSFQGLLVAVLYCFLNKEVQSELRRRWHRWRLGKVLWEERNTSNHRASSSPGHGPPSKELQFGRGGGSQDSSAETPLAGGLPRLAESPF

Row | Compound | Emax [1, 4] [%] | Emax [1, 5] [%] | EC50 [1, 6] [nM] | EC50 [1, 7] [nM] | EC50 [2, 8] [nM] | EC50 [2, 9] [nM] | Emax [3, 10] [%] | Emax ([3]; HEK293, read-out: hGIPR Emax, % ± SEM, percent of maximal response to GIP(1-42)NH2, 37° C., 0.1% bovine casein, arithmetic mean) [%] | EC50 [3, 11] [nM] | EC50 ([1]; 0.1% bovine casein and 1.0% human serum albumin, 37° C., read-out: hGLP-1R EC50, nM (SEM, n)) [nM] | EC50 ([1]; cAMP, 37° C., 0.1% bovine casein (no human serum albumin), read-out: hGLP-1R EC50, nM (SEM, n)) [nM] | EC50 ([2]; 0.1% bovine casein and 1.0% human serum albumin, 37° C., read-out: hGCGR EC50, nM (SEM, n)) [nM] | EC50 ([2]; cAMP, 37° C., 0.1% bovine casein (no human serum albumin), read-out: hGCGR EC50, nM (SEM, n)) [nM] | Emax ([3]; HEK293, 0.1% bovine casein and 1.0% human serum albumin, 37° C., percent of maximal response to GIP(1-42)NH2, read-out: hGIPR Emax, % ± SEM) [%] | EC50 ([3]; 37° C., read-out: hGIPR EC50, nM (SEM, n)) [nM]
1 | CC[C@H](C)[C@H](NC(=O)[C@H](CC(C)C)NC(=O)[C@](C)(Cc1ccc(O)cc1)NC(=O)[C@@H](CCC(=O)O)NC(=O)[C@@H](NC(=O)[C@H](Cc1ccccc1)NC(=O)[C@H](CCC(=O)O)NC(=O)C(C)(C)NC(=O)[C@H](CCC(N)=O)NC(=O)[C@H](C)NC(=O)[C@H](CCCCNC(=O)COCCOCCNC(=O)COCCOCCNC(=O)CC[C@H](NC(=O)CCCCCCCCCOc1ccc(C(=O)O)cc1)C(=O)O)NC(=O)[C@H](CCCN)NC(=O)[C@H](CC(=O)O)NC(=O)[C@H](CC(C)C)NC(=O)[C@](C)(CC(C)C)NC(=O)[C@@H](NC(=O)C(C)(C)NC(=O)[C@H](Cc1ccncc1)NC(=O)[C@H](CC(=O)O)NC(=O)[C@H](CO)NC(=O)[C@@H](NC(=O)[C@](C)(Cc1ccccc1F)NC(=O)[C@@H](NC(=O)CNC(=O)[C@H](CCC(=O)O)NC(=O)C(C)(C)NC(=O)[C@@H](N)Cc1ccc(O)cc1)[C@@H](C)O)[C@@H](C)O)[C@@H](C)CC)[C@@H](C)CC)C(=O)N[C@@H](CCC(=O)O)C(=O)NCC(=O)NCC(=O)N1CCC[C@H]1C(=O)N[C@@H](CO)C(=O)N[C@@H](CO)C(=O)NCC(=O)N[C@@H](C)C(=O)N1CCC[C@H]1C(=O)N1CCC[C@H]1C(=O)N1CCC[C@H]1C(=O)N[C@@H](CO)C(=O)N[C@@H](CCCCNC(=O)COCCOCCNC(=O)COCCOCCNC(=O)CC[C@H](NC(=O)CCCCCCCCCOc1ccc(C(=O)O)cc1)C(=O)O)C(N)=O [Example 245] | 93.8 | 88.9 | 27 | 1.88 | > 9950 | > 9950 | 81.9 | 96.7 | 0.0195 | – | – | – | – | – | –
2 | CC[C@H](C)[C@H](NC(=O)[C@H](CCCN)NC(=O)[C@H](CC(=O)O)NC(=O)[C@H](CC(C)C)NC(=O)[C@](C)(CC(C)C)NC(=O)[C@@H](NC(=O)C(C)(C)NC(=O)[C@H](Cc1ccncc1)NC(=O)[C@H](CC(=O)O)NC(=O)[C@H](CO)NC(=O)[C@@H](NC(=O)[C@](C)(Cc1ccccc1F)NC(=O)[C@@H](NC(=O)CNC(=O)[C@H](CCC(=O)O)NC(=O)C(C)(C)NC(=O)[C@@H](N)Cc1ccc(O)cc1)[C@@H](C)O)[C@@H](C)O)[C@@H](C)CC)C(=O)N[C@@H](C)C(=O)N[C@@H](CCC(N)=O)C(=O)NC(C)(C)C(=O)N[C@@H](CCCCNC(=O)COCCOCCNC(=O)COCCOCCNC(=O)CC[C@H](NC(=O)CCCCCCCCCOc1ccc(C(=O)O)cc1)C(=O)O)C(=O)N[C@@H](Cc1ccccc1)C(=O)N[C@H](C(=O)N[C@H](CCC(=O)O)C(=O)N[C@@](C)(Cc1ccc(O)cc1)C(=O)N[C@@H](CC(C)C)C(=O)N[C@H](C(=O)N[C@@H](CCCCNC(=O)COCCOCCNC(=O)COCCOCCNC(=O)CC[C@H](NC(=O)CCCCCCCCCOc1ccc(C(=O)O)cc1)C(=O)O)C(=O)NCC(=O)NCC(=O)N1CCC[C@H]1C(=O)N[C@@H](CO)C(=O)N[C@@H](CO)C(=O)NCC(=O)N[C@@H](C)C(=O)N1CCC[C@H]1C(=O)N1CCC[C@H]1C(=O)N1CCC[C@H]1C(=O)N[C@@H](CO)C(N)=O)[C@@H](C)CC)[C@@H](C)CC [Example 247] | 109 | – | – | 1 | > 9950 | > 9950 | 90.2 | – | 0.022 | – | – | – | – | – | –
3 | CC[C@H](C)[C@H](NC(=O)[C@H](CCCN)NC(=O)[C@H](CC(=O)O)NC(=O)[C@H](CC(C)C)NC(=O)[C@](C)(CC(C)C)NC(=O)[C@@H](NC(=O)C(C)(C)NC(=O)[C@H](Cc1ccncc1)NC(=O)[C@H](CC(=O)O)NC(=O)[C@H](CO)NC(=O)[C@@H](NC(=O)[C@](C)(Cc1ccccc1F)NC(=O)[C@@H](NC(=O)CNC(=O)[C@H](CCC(=O)O)NC(=O)C(C)(C)NC(=O)[C@@H](N)Cc1ccc(O)cc1)[C@@H](C)O)[C@@H](C)O)[C@@H](C)CC)C(=O)N[C@@H](C)C(=O)N[C@@H](CCC(N)=O)C(=O)NC(C)(C)C(=O)N[C@@H](CCCCNC(=O)COCCOCCNC(=O)COCCOCCNC(=O)CC[C@H](NC(=O)CCCCCCCCCOc1ccc(C(=O)O)cc1)C(=O)O)C(=O)N[C@@H](Cc1ccccc1)C(=O)N[C@H](C(=O)N[C@H](CCC(=O)O)C(=O)N[C@@](C)(Cc1ccc(O)cc1)C(=O)N[C@@H](CC(C)C)C(=O)N[C@H](C(=O)N[C@@H](CCC(=O)O)C(=O)NCC(=O)NCC(=O)N1CCC[C@H]1C(=O)N[C@@H](CO)C(=O)N[C@@H](CO)C(=O)NCC(=O)N[C@@H](C)C(=O)N1CCC[C@H]1C(=O)N1CCC[C@H]1C(=O)N1CCC[C@H]1C(=O)N[C@@H](CO)C(=O)N[C@@H](CCCCNC(=O)COCCOCCNC(=O)COCCOCCNC(=O)CC[C@H](NC(=O)CCCCCCCCCOc1ccc(C(=O)O)cc1)C(=O)O)C(N)=O)[C@@H](C)CC)[C@@H](C)CC [Example 248] (H-Y[Aib]EGT[αMePhe(2-F)]TSD[4Pal][Aib]I[αMeL]LD[Orn]IAQ[Aib]K([AEEA-AEEA-γGlu-Decanoyl(10-(4-HOOC-PhO))])FI[dE][αMeY]LIEGGPSSGAPPPSK([AEEA-AEEA-γGlu-Decanoyl(10-(4-HOOC-PhO))])-NH2; N-terminus assumed) | – | 89.1 | 56.7 | 0.537 | > 9950 | > 9950 | 91.8 | – | 0.0176 | – | – | – | – | – | –
4 | CC[C@H](C)[C@H](NC(=O)[C@H](CC(C)C)NC(=O)[C@](C)(Cc1ccc(O)cc1)NC(=O)[C@@H](CCC(=O)O)NC(=O)[C@@H](NC(=O)[C@H](Cc1ccccc1)NC(=O)[C@H](CCCCNC(=O)COCCOCCNC(=O)COCCOCCNC(=O)CC[C@H](NC(=O)CCCCCCCCCCCCC(=O)O)C(=O)O)NC(=O)C(C)(C)NC(=O)[C@H](CCC(N)=O)NC(=O)[C@H](C)NC(=O)[C@H](CCCCNC(=O)COCCOCCNC(=O)COCCOCCNC(=O)CC[C@H](NC(=O)CCCCCCCCCCCCC(=O)O)C(=O)O)NC(=O)[C@H](CCCN)NC(=O)[C@H](CC(=O)O)NC(=O)[C@H](CC(C)C)NC(=O)[C@](C)(CC(C)C)NC(=O)[C@@H](NC(=O)[C@H](CO)NC(=O)[C@H](Cc1ccc2ccccc2c1)NC(=O)[C@H](CC(=O)O)NC(=O)[C@H](CO)NC(=O)[C@@H](NC(=O)[C@](C)(Cc1ccccc1F)NC(=O)[C@@H](NC(=O)CNC(=O)[C@H](CCC(=O)O)NC(=O)C(C)(C)NC(=O)[C@@H](N)Cc1ccc(O)cc1)[C@@H](C)O)[C@@H](C)O)[C@@H](C)CC)[C@@H](C)CC)C(=O)N[C@@H](CCC(=O)O)C(=O)NCC(=O)NCC(=O)N1CCC[C@H]1C(=O)N[C@@H](CO)C(=O)N[C@@H](CO)C(=O)NCC(=O)N[C@@H](C)C(=O)N1CCC[C@H]1C(=O)N1CCC[C@H]1C(=O)N1CCC[C@H]1C(=O)N[C@@H](CO)C(N)=O [Example 249] | – | – | – | – | – | – | – | – | – | 51.6 | 0.3 | > 9950 | > 9950 | 88.9 | 0.0201
